Reference: ChEMBL document CHEMBL1201862, “PubChem BioAssay data set” (2004)
Values joined by “and” are separate entries in the source; they are usually repeats but may differ in a detail not shown here. Equal values may be shown once.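 How tested: cells in 96-well plates exposed to compound for 48 hours at five concentrations. GI50 is the concentration that inhibits growth by half.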 Active and inactive are the calls of the source. Rule as the data show it: active = GI50 up to about 1.1 µM and inactive = higher.

Assays:
Experiment in all cases: NCI anticancer screen, dose series, 48 h
A498 = tested on: A498
A549 = tested on: A549
ACHN = tested on: ACHN
BT-549 = tested on: BT-549
CAKI-1 = tested on: CAKI-1
DU-145 = tested on: DU-145
EKVX = tested on: EKVX
HCT-15 = tested on: HCT-15
HL-60 = tested on: HL-60
HOP-62 = tested on: HOP-62
HOP-92 = tested on: HOP-92
Hs-578T = tested on: Hs-578T
IGROV-1 = tested on: IGROV-1
M14 = tested on: M14
MCF7 = tested on: MCF7
MDA-MB-435 = tested on: MDA-MB-435
MDA-N = tested on: MDA-N
NCI-H226 = tested on: NCI-H226
NCI-H23 = tested on: NCI-H23
NCI-H460 = tested on: NCI-H460
NCI/ADR-RES = tested on: NCI/ADR-RES
OVCAR-4 = tested on: OVCAR-4
OVCAR-5 = tested on: OVCAR-5
OVCAR-8 = tested on: OVCAR-8
SF-268 = tested on: SF-268
SF-295 = tested on: SF-295
SF-539 = tested on: SF-539
SK-MEL-28 = tested on: SK-MEL-28
SK-MEL-2 = tested on: SK-MEL-2
SK-MEL-5 = tested on: SK-MEL-5
SK-OV-3 = tested on: SK-OV-3
SN12C = tested on: SN12C
SNB-19 = tested on: SNB-19
SW-620 = tested on: SW-620
T47D = tested on: T47D
TK-10 = tested on: TK-10
UACC-257 = tested on: UACC-257
UACC-62 = tested on: UACC-62
UO-31 = tested on: UO-31
786-0 = tested on: 786-0
HCC 2998 = tested on: HCC 2998
HCT-116 = tested on: HCT-116
HT-29 = tested on: HT-29
K562 = tested on: K562
KM12 = tested on: KM12
LOX IMVI = tested on: LOX IMVI
MDA-MB-231 = tested on: MDA-MB-231
MOLT-4 = tested on: MOLT-4
NCI-H522 = tested on: NCI-H522
OVCAR-3 = tested on: OVCAR-3
PC-3 = tested on: PC-3
RPMI-8226 = tested on: RPMI-8226
SNB-75 = tested on: SNB-75
SR = tested on: SR
U-251 = tested on: U-251
CCRF-CEM = tested on: CCRF-CEM
COLO 205 = tested on: COLO 205
Malme-3M = tested on: Malme-3M
RXF 393 = tested on: RXF 393

Measured: GI50

COc1ccc(/C=C/C(=O)OC2CC34CCNC35CC(OC5(OC)C2OC)c2ccc(OC)c(O)c24)cc1O (stereo not given)
58.5 µM: HCT-15
inactive: A498 > 100 µM | A549 > 100 µM | ACHN > 100 µM and 80.7 µM | BT-549 > 100 µM | CAKI-1 > 100 µM | DU-145 > 100 µM | EKVX > 100 µM | HL-60 24.1 µM | HOP-62 > 100 µM and 61.4 µM | HOP-92 76 µM | Hs-578T > 100 µM and 52.2 µM | IGROV-1 > 100 µM and 86.3 µM | M14 > 100 µM and 88.7 µM | MCF7 > 100 µM and 70 µM | MDA-MB-435 > 100 µM | MDA-N > 100 µM | NCI-H226 > 100 µM | NCI-H23 > 100 µM and 88.1 µM | NCI-H460 > 100 µM and 57.7 µM | NCI/ADR-RES 63 µM | OVCAR-4 > 100 µM and 50.6 µM | OVCAR-5 > 100 µM | OVCAR-8 > 100 µM | SF-268 > 100 µM | SF-295 > 100 µM and 62.4 µM | SF-539 > 100 µM and 87.1 µM | SK-MEL-28 79.4 µM | SK-MEL-2 > 100 µM | SK-MEL-5 57.3 µM | SK-OV-3 > 100 µM | SN12C 55.1 µM | SNB-19 > 100 µM | SW-620 58.1 µM | T47D > 100 µM | TK-10 > 100 µM | UACC-257 > 100 µM | UACC-62 > 100 µM | UO-31 > 100 µM

CCCC(C(=O)Nc1cccc2nc[nH]c12)C(=O)OCC (stereo not given)
> 100 µM: HCT-15
inactive: 786-0 > 100 µM | A498 > 100 µM | A549 > 100 µM | ACHN > 100 µM | BT-549 > 100 µM | DU-145 > 100 µM | EKVX > 100 µM | HCC 2998 > 100 µM | HCT-116 > 100 µM | HL-60 > 100 µM | HOP-62 > 100 µM | HOP-92 > 100 µM | HT-29 > 100 µM | Hs-578T > 100 µM | IGROV-1 > 100 µM | K562 > 100 µM | KM12 > 100 µM | LOX IMVI > 100 µM | M14 > 100 µM | MCF7 > 100 µM | MDA-MB-231 > 100 µM | MDA-MB-435 > 100 µM | MOLT-4 > 100 µM | NCI-H226 > 100 µM | NCI-H460 > 100 µM | NCI-H522 44.1 µM | NCI/ADR-RES 79.1 µM | OVCAR-3 67.8 µM | OVCAR-4 > 100 µM | OVCAR-5 > 100 µM | OVCAR-8 > 100 µM | PC-3 > 100 µM | RPMI-8226 > 100 µM | SF-268 > 100 µM | SF-295 > 100 µM | SF-539 > 100 µM | SK-MEL-28 > 100 µM | SK-MEL-2 > 100 µM | SK-OV-3 > 100 µM | SN12C > 100 µM | SNB-19 > 100 µM | SNB-75 > 100 µM | SR > 100 µM | SW-620 > 100 µM | T47D > 100 µM | TK-10 > 100 µM | U-251 > 100 µM | UACC-257 > 100 µM | UACC-62 > 100 µM | UO-31 > 100 µM

CC1(C)OC2C(O)CN3CCS[C@H]3C2O1 (stereo not given in full)
inactive: 786-0 > 100 µM | A498 > 100 µM | A549 > 100 µM | ACHN > 100 µM | BT-549 > 100 µM | CAKI-1 > 100 µM | CCRF-CEM > 100 µM | COLO 205 > 100 µM | DU-145 > 100 µM | EKVX > 100 µM | HCC 2998 > 100 µM | HCT-116 > 100 µM | HL-60 > 100 µM | HOP-62 > 100 µM | HOP-92 > 100 µM | HT-29 > 100 µM | Hs-578T > 100 µM | IGROV-1 > 100 µM | K562 > 100 µM | KM12 > 100 µM | LOX IMVI > 100 µM | M14 > 100 µM | MDA-MB-231 > 100 µM | MDA-MB-435 > 100 µM | MOLT-4 > 100 µM | Malme-3M > 100 µM | NCI-H226 > 100 µM | NCI-H23 > 100 µM | NCI-H460 > 100 µM | NCI-H522 > 100 µM | NCI/ADR-RES > 100 µM | OVCAR-3 > 100 µM | OVCAR-4 > 100 µM | OVCAR-5 > 100 µM | OVCAR-8 > 100 µM | PC-3 > 100 µM | RPMI-8226 > 100 µM | RXF 393 > 100 µM | SF-268 > 100 µM | SF-295 > 100 µM | SK-MEL-28 > 100 µM | SK-MEL-2 > 100 µM | SK-MEL-5 > 100 µM | SK-OV-3 > 100 µM | SNB-19 > 100 µM | SNB-75 > 100 µM | SR > 100 µM | SW-620 > 100 µM | T47D > 100 µM | TK-10 > 100 µM | U-251 > 100 µM | UACC-257 > 100 µM | UACC-62 > 100 µM | UO-31 > 100 µM
> 100 µM: HCT-15
